In US7341985B2, “2-Hydroxy-3-alkoxypropyl sulfides, sulfones, and sulfoxides: new surface active agents” (Air Products and Chemicals, Inc., priority 2004, dated 2008):

Experiments:
Type in all cases: physicochemical
[1] = Equilibrium surface tension (Kruss K-12 tensiometer, Wilhelmy plate); conditions: 25±1° C., average of 10 measurements over 10 minutes
Protocol: Equilibrium surface tensions were determined for the compounds prepared in Examples 1-6, using a Kruss K-12 tensiometer with a platinum Wilhelmy plate, maintaining the temperature at 25±1° C. by means of a constant temperature circulating bath. The results, reported in Table 2, are averages of 10 measurements over a 10-minute period, and have a standard deviation of less than 0.01 dyne/cm.

Water solubility = assay: Water solubility
[2] = Ross-Miles foam test (foam height and stability); conditions: 0.1 wt % solution
Protocol: Foam height and stability (time to reach zero foam) were measured by the Ross-Miles foam test, using 0.1 wt % solutions of the surfactants.

[3] = Dynamic surface tension (Kruss BP-2 Bubble Pressure Tensiometer); conditions: for Dynamic surface tension reduction of an aqueous solution (in words): summary of Table 4
Protocol: Dynamic surface tensions were determined for the compounds prepared in Examples 1-5, at 0.1 and 1.0 wt % levels, using a Kruss BP-2 Bubble Pressure Tensiometer.

[4] = 0.1 wt %, 1 b/s (bubbles/second)

Row | Structure (SMILES) | Equilibrium Surface Tension ([1]; 0.1 wt % in water) [dynes/cm] | Equilibrium Surface Tension ([1]; 1.0 wt % in water) [dynes/cm] | Water Solubility (Water solubility) [wt %] | Initial Foam Height [2] [cm] | Time to 0 foam [2] [s] | Final Foam Height at 300 Sec [2] [cm] | Dynamic surface tension [3, 4] [dynes/cm] | Dynamic surface tension ([3]; 0.1 wt %, 5 b/s) [dynes/cm] | Dynamic surface tension ([3]; 0.1 wt %, 20 b/s) [dynes/cm] | Dynamic surface tension ([3]; 1.0 wt %, 1 b/s) [dynes/cm] | Dynamic surface tension ([3]; 1.0 wt %, 5 b/s) [dynes/cm] | Dynamic surface tension ([3]; 1.0 wt %, 20 b/s) [dynes/cm] | Dynamic surface tension reduction of an aqueous solution (in words) [3]
1 | CCCCC(CC)COCC(O)CSCC(O)CO (stereo not drawn) [TGEHGE, 2,3-dihydroxypropyl-2′-hydroxy-3′-(2-ethylhexyloxy)propyl sulfide] | 28.3 | 26.7 | <0.1 | 1.0 | 6 | 0 | 37 | 47 | 53 | 27 | 28 | 30 | strong
2 | CCCCOCC(O)CSCCO (stereo not drawn) [MEBGE, 2-hydroxyethyl-2′-hydroxy-3′-butoxypropyl sulfide] | 37.1 | 32.6 | <0.1 | 1.2 | 2 | 0 | 59 | 61 | 65 | 43 | 44 | 44 | moderate
3 | CCCCC(CC)COCC(O)CSCCO (stereo not drawn) [MEEHGE, 2-hydroxyethyl-2′-hydroxy-3′-(2-ethylhexyloxy)propyl sulfide] | 30.7 | 29.3 | <0.1 | 0.6 | 6 | 0 | 35 | 39 | 45 | 30 | 30 | 32 | strong
